The text below walks through data of patent EP4678638A1, “NEW E3 UBIQUITIN LIGASE LIGAND, PROTEIN DEGRADATION AGENT AND USE THEREOF” (priority 2023, dated 2024).

SMILES strings stand for the structures.

In one assay the test system is HCC827. Description: CCK-8 proliferation, HCC827. It is filed as cell-based, Human. The settings on record: Homo sapiens, HCC827; CCK-8; 96 hours; read-out: Inhibitory activity (IC50) on tumor cell proliferation, HCC827. How it is done:
(§1) The tumor cells used herein were cultured in a cell culture medium listed in table A1 at 37°C in an incubator with 5% CO2. Prior to experimentation, all cell lines used were correctly identified by STR profiling, and tested negative for mycoplasma contamination using a mycoplasma detection kit through routine screenings. Table A1. Tumor cells and cell culture medium used in the present disclosure
(§2) IC50 values of the compounds of the present disclosure (including the compounds in Table 1, and compounds of examples) were measured using the Meilun Cell Counting Kit-8 kit from Dalian Meilun Biotech Co., Ltd. Assay details are as follows: tumor cells were seeded in a 96-well plate at a density listed in Table A2. After 24h, 100 µL of the inoculated cells were treated with 0.5µL of the compounds of the present disclosure (including the compounds in Tables 1 and 2, and compounds of examples) at 10 different successively decreasing concentrations (starting at the highest concentration of 10µM; 5-fold serial dilutions). After the cells were treated with the compounds of the present disclosure for a period of time, the cell viability detection reagent was added to the culture medium for cell viability assessment according to the instructions provided with the CCK-8 kit. […] The growth inhibition of the compounds of the present disclosure on cells was plotted by Prism Graphpad software, and the IC50 values of the compounds of the present disclosure were calculated therefrom. […] Seeding protocol and treatment time for tumor cells

The next assay has as its system H1975. Description: CCK-8 proliferation, NCI-H1975 (H1975). It counts as cell-based, Human. As to conditions: Homo sapiens, NCI-H1975; CCK-8; 96 hours; read-out: Inhibitory activity (IC50) on tumor cell proliferation, H1975. In a few lines:
(§3)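 CCK-8 viability readout; IC50 from growth-inhibition curve fitting. Cells plated, dosed 24h later with a 10-point series, top 10µM, 5-fold steps. Culture at 37°C, 5% CO2.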

The test system of a further assay is PC-9. Description: CCK-8 proliferation, PC-9. It is filed as cell-based, Human. The settings on record: Homo sapiens, PC-9; CCK-8; 96 hours; read-out: Inhibitory activity (IC50) on tumor cell proliferation, PC-9. How it is done:
as §1, §2

The subject of the next assay is EGFR. Description: Western blot degradation of EGFR (H1975 Cell). The settings on record: Table D2. It counts as cell-based, Human. The essentials:
(§4)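 Degradation is assessed by immunoblotting lysates of treated cells. Target bands are quantified by grayscale and normalised to an internal control, so degradation rate equals 100% minus % remaining.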
On the technique in general: In western blotting, separated proteins are transferred to a membrane and probed.

A further assay concerns MV-4-11. Description: CCK-8 proliferation, MV-4-11. It is filed as cell-based, Human. The settings on record: Homo sapiens, MV4-11; CCK-8; 72 or 96 hours; read-out: Inhibitory activity (IC50) on tumor cell proliferation, MV-4-11. In a few lines:
as §3

The target of the next assay is T1, CDK6 (Homo sapiens, UniProt Q00534).
T1 construct: evaluate the effects of the compounds of the present disclosure on the expression of target proteins in cells; endogenous in cells; host or cells: MDA-MB-231
T1 sequence (Q00534 whole entry): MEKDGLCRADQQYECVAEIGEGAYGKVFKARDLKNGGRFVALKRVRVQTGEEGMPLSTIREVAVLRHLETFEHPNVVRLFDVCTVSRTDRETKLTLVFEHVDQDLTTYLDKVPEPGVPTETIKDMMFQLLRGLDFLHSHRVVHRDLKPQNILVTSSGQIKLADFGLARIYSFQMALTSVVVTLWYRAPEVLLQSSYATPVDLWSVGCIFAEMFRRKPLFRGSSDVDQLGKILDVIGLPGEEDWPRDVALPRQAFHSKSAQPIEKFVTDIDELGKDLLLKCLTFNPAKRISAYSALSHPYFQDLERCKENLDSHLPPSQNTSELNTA
Description: Western blot degradation of CDK6 (MDA-MB-231 Cell). It is filed as cell-based. As to conditions: Table D3. In a few lines: as §4

For another assay, the target named is T2, CDK4 (Homo sapiens, UniProt P11802).
T2 construct: evaluate the effects of the compounds of the present disclosure on the expression of target proteins in cells; endogenous in cells; host or cells: MDA-MB-231
T2 sequence (P11802 whole entry): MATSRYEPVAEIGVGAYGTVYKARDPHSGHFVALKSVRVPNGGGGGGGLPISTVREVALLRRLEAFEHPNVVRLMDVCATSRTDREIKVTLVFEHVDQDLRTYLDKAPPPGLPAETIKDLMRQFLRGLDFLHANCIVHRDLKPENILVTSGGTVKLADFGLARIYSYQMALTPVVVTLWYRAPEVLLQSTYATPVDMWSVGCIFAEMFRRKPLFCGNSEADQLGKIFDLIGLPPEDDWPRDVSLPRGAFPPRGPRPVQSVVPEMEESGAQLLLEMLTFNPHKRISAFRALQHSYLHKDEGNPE
Description: Western blot degradation of CDK4 (MDA-MB-231 Cell). The settings on record: Table D3. It counts as cell-based. The essentials:
as §4

For another assay, the system named is Kasumi-1. Description: CCK-8 proliferation, Kasumi-1. The settings on record: Homo sapiens, Kasumi 1, 72 hours, read-out: Inhibitory activity (IC50) on tumor cell proliferation, Kasumi-1. It is filed as cell-based, Human. How it is done: as §1, §2
The next assay concerns MCF7. Description: CCK-8 proliferation, MCF7 (MCF-7). It is filed as cell-based. As to conditions: Homo sapiens, MCF7; CCK-8; read-out: Inhibitory activity (IC50) on tumor cell proliferation, MCF7. The essentials:
as §3

With `O=C1CCN(c2ccc(CN3CCN(c4ccc(Nc5ncc6nc(Nc7ccccc7)n(C7CCCC7)c6n5)cc4)CC3)cc2)C(=O)N1` [GT-05837, 1-(4-((4-(4-((9-cyclopentyl-8-(phenylamino)-9H-purin-2-yl)amino)phenyl)piperazin-1-yl)methyl)phenyl)dihydropyrimidine-2,4(1H,3H)-dione], the IC50 in the assay with HCC827 lay within 1 to 10 nM; with H1975 it was 100 to 500 nM; in the assay on PC-9 it was 1 to 10 nM.

For the compound `O=C1CCC(c2ccc(CN3CCN(c4ccc(Nc5ncc6nc(Nc7ccccc7)n(C7CCCC7)c6n5)cc4)CC3)cc2F)C(=O)N1` (centres unmarked) [GT-03741, 3-(4-((4-(4-((9-cyclopentyl-8-(phenylamino)-9H-purin-2-yl)amino)phenyl)piperazin-1-yl)methyl)-2-fluorophenyl)piperidine-2,6-dione], the IC50 with HCC827 and with PC-9 was 10 to 50 nM throughout.

Turning to `O=C1CCC(Nc2cccc(CN3CCN(c4ccc(Nc5ncc6nc(Nc7ccccc7)n(C7CCCC7)c6n5)cc4)CC3)c2)C(=O)N1` (centres unmarked) [GT-05841, 3-((3-((4-(4-((9-cyclopentyl-8-(phenylamino)-9H-purin-2-yl)amino)phenyl)piperazin-1-yl)methyl)phenyl)amino)piperidine-2,6-dione], the “Degradation of substrate protein EGFR (substrate protein remaining %)” value in the assay on EGFR is listed as “A (A is defined as 0% ≤ substrate protein remaining % ≤ 80%)”. Moreover, the IC50 in the assay with HCC827 and in the assay on PC-9 was 10 to 50 nM throughout.

For the compound `O=C1CCN(c2ccc(CN3CCN(c4ccc(Nc5ncc6nc(Nc7ccccc7)n(C7CCCC7)c6n5)cc4)CC3)nc2)C(=O)N1` [GT-05839, 1-(6-((4-(4-((9-cyclopentyl-8-(phenylamino)-9H-purin-2-yl)amino)phenyl)piperazin-1-yl)methyl)pyridin-3-yl)dihydropyrimidine-2,4(1H,3H)-dione], the “Degradation of substrate protein EGFR (substrate protein remaining %)” value in the assay on EGFR is recorded as “A (A is defined as 0% ≤ substrate protein remaining % ≤ 80%)”. Moreover, the IC50 in the assay with HCC827 lay in the range of 10 to 50 nM; with H1975, 100 to 500 nM; in the assay on PC-9, 1 to 10 nM.

Regarding `O=C1CCN(c2ccc(CN3CCN(c4ccc(Nc5ncc6nc(Nc7ccccc7)n(C7CCCC7)c6n5)cc4)CC3)cn2)C(=O)N1` [GT-05840, 1-(5-((4-(4-((9-cyclopentyl-8-(phenylamino)-9H-purin-2-yl)amino)phenyl)piperazin-1-yl)methyl)pyridin-2-yl)dihydropyrimidine-2,4(1H,3H)-dione], in the assay on EGFR, the “Degradation of substrate protein EGFR (substrate protein remaining %)” value is “A (A is defined as 0% ≤ substrate protein remaining % ≤ 80%)”. In addition, the results for the IC50 in the assay on HCC827, in the assay with H1975 and in the assay on PC-9 were 10 to 50 nM, 100 to 500 nM and 1 to 10 nM, respectively.

With `O=C1CCN(c2cccc(CN3CCN(c4ccc(Nc5ncc6nc(Nc7ccccc7)n(C7CCCC7)c6n5)cc4)CC3)c2)C(=O)N1` [GT-05838, 1-(3-((4-(4-((9-cyclopentyl-8-(phenylamino)-9H-purin-2-yl)amino)phenyl)piperazin-1-yl)methyl)phenyl)dihydropyrimidine-2,4(1H,3H)-dione], in the assay with EGFR, the “Degradation of substrate protein EGFR (substrate protein remaining %)” value is listed as “A (A is defined as 0% ≤ substrate protein remaining % ≤ 80%)”. Moreover, the IC50 with HCC827 was in the range of 1 to 10 nM; in the assay on H1975, 100 to 500 nM; with PC-9, 1 to 10 nM.

With `CN(Cc1ccc(N2CCC(=O)NC2=O)nc1)C1CCN(c2ccc(Nc3ncc4nc(Nc5ccccc5)n(C5CCCC5)c4n3)cc2)CC1` [GT-05871, 1-(5-(((1-(4-((9-cyclopentyl-8-(phenylamino)-9H-purin-2-yl)amino)phenyl)piperidin-4-yl)(methyl)amino)methyl)pyridin-2-yl)dihydropyrimidine-2,4(1H,3H)-dione], the IC50 in the assay with HCC827 lay in the range of 10 to 50 nM; with H1975, 100 to 500 nM; in the assay with PC-9 it was 1 to 10 nM.

Turning to `Cc1nc2c(F)cc(-c3nc(Nc4ccc(CN5CCN(Cc6ccc(N7CCC(=O)NC7=O)nc6)CC5)cn4)ncc3F)cc2n1C(C)C` [GT-06668, 1-(5-((4-((6-((5-fluoro-4-(4-fluoro-1-isopropyl-2-methyl-1H-benzo[d]imidazol-6-yl)pyrimidin-2-yl)amino)pyridin-3-yl)methyl)piperazin-1-yl)methyl)pyridin-2-yl)dihydropyrimidine-2,4(1H,3H)-dione], the IC50 with MV-4-11 lay within 50 to 100 nM; in the assay on Kasumi-1, 100 to 500 nM; in the assay with MCF7 it was 50 to 100 nM. The “Degradation of substrate protein CDK6 (substrate protein remaining %)” value on CDK6 is reported as “A (A is defined as 0% ≤ substrate protein remaining % ≤ 80%)”. At CDK4, the “Degradation of substrate protein CDK4 (substrate protein remaining %)” value was “A (A is defined as 0% ≤ substrate protein remaining % ≤ 80%)”.

Turning to `CN(Cc1ccc(C2CCC(=O)NC2=O)c(F)c1)C1CCN(c2ccc(Nc3ncc4nc(Nc5ccccc5)n(C5CCCC5)c4n3)cc2)CC1` (centres unmarked) [GT-03864, 3-(4-(((1-(4-((9-cyclopentyl-8-(phenylamino)-9H-purin-2-yl)amino)phenyl)piperidin-4-yl)(methyl)amino)methyl)-2-fluorophenyl)piperidine-2,6-dione], in the assay with EGFR, the “Degradation of substrate protein EGFR (substrate protein remaining %)” value is listed as “A (A is defined as 0% ≤ substrate protein remaining % ≤ 80%)”. Besides, the results for the IC50 with HCC827, in the assay on H1975 and with PC-9 were 1 to 10 nM, 100 to 500 nM and 1 to 10 nM, respectively.

In the case of `O=C1CCN(c2cccc(CN3CCN(C4CCN(c5ccc(Nc6ncc7nc(Nc8ccccc8)n(C8CCCC8)c7n6)cc5)CC4)CC3)c2)C(=O)N1` [GT-05940, 1-(3-((4-(1-(4-((9-cyclopentyl-8-(phenylamino)-9H-purin-2-yl)amino)phenyl)piperidin-4-yl)piperazin-1-yl)methyl)phenyl)dihydropyrimidine-2,4(1H,3H)-dione], the “Degradation of substrate protein EGFR (substrate protein remaining %)” value with EGFR is given as “A (A is defined as 0% ≤ substrate protein remaining % ≤ 80%)”. The IC50 in the assay on HCC827 is 1 to 10 nM; with H1975 it was 100 to 500 nM; in the assay on PC-9, 1 to 10 nM.

As to `O=C1CCC(c2ccc(CN3CCN(c4ccc(Nc5ncc6nc(Nc7ccccc7)n(C7CCCC7)c6n5)cc4)CC3)cc2)C(=O)N1` (centres unmarked) [GT-03740, 3-(4-((4-(4-((9-cyclopentyl-8-(phenylamino)-9H-purin-2-yl)amino)phenyl)piperazin-1-yl)methyl)phenyl)piperidine-2,6-dione], the “Degradation of substrate protein EGFR (substrate protein remaining %)” value with EGFR was “A (A is defined as 0% ≤ substrate protein remaining % ≤ 80%)”. Moreover, the IC50 in the assay with HCC827 and in the assay with PC-9 was 10 to 50 nM each time.

`CN(Cc1ccc(C2CCC(=O)NC2=O)cc1)C1CCN(c2ccc(Nc3ncc4nc(Nc5ccccc5)n(C5CCCC5)c4n3)cc2)CC1` (centres unmarked) [GT-03863, 3-(4-(((1-(4-((9-cyclopentyl-8-(phenylamino)-9H-purin-2-yl)amino)phenyl)piperidin-4-yl)(methyl)amino)methyl)phenyl)piperidine-2,6-dione]: the “Degradation of substrate protein EGFR (substrate protein remaining %)” value with EGFR was “A (A is defined as 0% ≤ substrate protein remaining % ≤ 80%)”. The IC50 was in the range of 1 to 10 nM with HCC827, 100 to 500 nM in the assay with H1975 and 1 to 10 nM with PC-9.

On to `CN(Cc1cccc(N2CCC(=O)NC2=O)c1)C1CCN(c2ccc(Nc3ncc4nc(Nc5ccccc5)n(C5CCCC5)c4n3)cc2)CC1` [GT-05870, 1-(3-(((1-(4-((9-cyclopentyl-8-(phenylamino)-9H-purin-2-yl)amino)phenyl)piperidin-4-yl)(methyl)amino)methyl)phenyl)dihydropyrimidine-2,4(1H,3H)-dione], for which the “Degradation of substrate protein EGFR (substrate protein remaining %)” value in the assay on EGFR is on record as “A (A is defined as 0% ≤ substrate protein remaining % ≤ 80%)”. The IC50 with HCC827 fell in the range of 10 to 50 nM; in the assay with H1975 it was 100 to 500 nM; in the assay with PC-9, 1 to 10 nM.

Take `O=C1CCC(Nc2cccc(CN3CCN(C4CCN(c5ccc(Nc6ncc7nc(Nc8ccccc8)n(C8CCCC8)c7n6)cc5)CC4)CC3)c2)C(=O)N1` (centres unmarked) [GT-05943, 3-((3-((4-(1-(4-((9-cyclopentyl-8-(phenylamino)-9H-purin-2-yl)amino)phenyl)piperidin-4-yl)piperazin-1-yl)methyl)phenyl)amino)piperidine-2,6-dione]: the “Degradation of substrate protein EGFR (substrate protein remaining %)” value with EGFR is “A (A is defined as 0% ≤ substrate protein remaining % ≤ 80%)”. The IC50 in the assay with HCC827 and with PC-9 was 10 to 50 nM in each case.
